Source: patent publication US8168651B2, “Protein kinase modulators” (Cylene Pharmaceuticals, Inc., priority 2008, dated 2012)

Assays:
Assay in all cases: Standardized radiometric kinase assays, percentage of activity at 0.5 μM;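 note: Read-out is ³³P-labelled substrate protein phosphorylated by each kinase, captured on filters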
[1] = biological target: each individual kinase of the panel (Homo sapiens, UniProt Q9HBY8)
[2] = biological target: each individual kinase of the panel (Homo sapiens, UniProt Q96PF2)
[3] = biological target: each individual kinase of the panel (Homo sapiens, UniProt Q15831)
[4] = biological target: each individual kinase of the panel (Homo sapiens, UniProt Q05655)
[5] = biological target: each individual kinase of the panel (Homo sapiens, UniProt O75116)
[6] = biological target: each individual kinase of the panel (Homo sapiens, UniProt P36896)
[7] = biological target: each individual kinase of the panel (Homo sapiens, UniProt Q9BYP7)
[8] = biological target: each individual kinase of the panel (Homo sapiens, UniProt P05771)
[9] = biological target: each individual kinase of the panel (Homo sapiens, UniProt P41743)
[10] = biological target: each individual kinase of the panel (Homo sapiens, UniProt Q8TDC3)
[11] = biological target: each individual kinase of the panel (Homo sapiens, UniProt P51817)
[12] = biological target: each individual kinase of the panel (Homo sapiens, UniProt P42684)
[13] = biological target: each individual kinase of the panel (Homo sapiens, UniProt Q13555)
[14] = biological target: each individual kinase of the panel (Homo sapiens, UniProt Q16644)
[15] = biological target: each individual kinase of the panel (Homo sapiens, UniProt Q7KZI7)
[16] = biological target: each individual kinase of the panel (Homo sapiens, UniProt P54753)
[17] = biological target: each individual kinase of the panel (Homo sapiens, UniProt Q14289)
[18] = biological target: each individual kinase of the panel (Homo sapiens, UniProt P00519, T315I)
[19] = biological target: each individual kinase of the panel (Homo sapiens, UniProt Q9UL54)
[20] = biological target: each individual kinase of the panel (Homo sapiens, UniProt Q00526)
[21] = biological target: each individual kinase of the panel (Homo sapiens, UniProt Q96BR1)
[22] = biological target: each individual kinase of the panel (Homo sapiens, UniProt P29320)
[23] = biological target: each individual kinase of the panel (Homo sapiens, UniProt O96017, I157T)
[24] = biological target: each individual kinase of the panel (Homo sapiens, UniProt P78362)
[25] = biological target: each individual kinase of the panel (Homo sapiens, UniProt P43405)
[26] = biological target: each individual kinase of the panel (Homo sapiens, UniProt Q9NQU5)
[27] = biological target: each individual kinase of the panel (Homo sapiens, UniProt Q16539)
[28] = biological target: each individual kinase of the panel (Homo sapiens, UniProt Q06187)
[29] = biological target: each individual kinase of the panel (Homo sapiens, UniProt Q9UIK4)
[30] = biological target: each individual kinase of the panel (Homo sapiens, UniProt Q8N568)
[31] = biological target: each individual kinase of the panel (Homo sapiens, UniProt Q16539, T106M)
Sequence of each individual kinase of the panel (Homo sapiens, UniProt Q16539, T106M) (Q16539 2-360 T106M limits assumed): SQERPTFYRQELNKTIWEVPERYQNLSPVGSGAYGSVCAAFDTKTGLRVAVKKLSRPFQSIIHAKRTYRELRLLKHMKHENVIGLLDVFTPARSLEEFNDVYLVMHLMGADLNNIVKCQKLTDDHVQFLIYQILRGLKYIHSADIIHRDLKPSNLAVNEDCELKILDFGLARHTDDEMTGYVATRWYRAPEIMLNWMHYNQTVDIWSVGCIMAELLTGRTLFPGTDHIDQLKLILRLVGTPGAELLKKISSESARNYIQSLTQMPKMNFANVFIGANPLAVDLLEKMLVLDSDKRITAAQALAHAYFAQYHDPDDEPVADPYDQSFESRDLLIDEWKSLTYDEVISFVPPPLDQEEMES

Sequence of each individual kinase of the panel (Homo sapiens, UniProt P41743) (P41743 2-596 limits assumed): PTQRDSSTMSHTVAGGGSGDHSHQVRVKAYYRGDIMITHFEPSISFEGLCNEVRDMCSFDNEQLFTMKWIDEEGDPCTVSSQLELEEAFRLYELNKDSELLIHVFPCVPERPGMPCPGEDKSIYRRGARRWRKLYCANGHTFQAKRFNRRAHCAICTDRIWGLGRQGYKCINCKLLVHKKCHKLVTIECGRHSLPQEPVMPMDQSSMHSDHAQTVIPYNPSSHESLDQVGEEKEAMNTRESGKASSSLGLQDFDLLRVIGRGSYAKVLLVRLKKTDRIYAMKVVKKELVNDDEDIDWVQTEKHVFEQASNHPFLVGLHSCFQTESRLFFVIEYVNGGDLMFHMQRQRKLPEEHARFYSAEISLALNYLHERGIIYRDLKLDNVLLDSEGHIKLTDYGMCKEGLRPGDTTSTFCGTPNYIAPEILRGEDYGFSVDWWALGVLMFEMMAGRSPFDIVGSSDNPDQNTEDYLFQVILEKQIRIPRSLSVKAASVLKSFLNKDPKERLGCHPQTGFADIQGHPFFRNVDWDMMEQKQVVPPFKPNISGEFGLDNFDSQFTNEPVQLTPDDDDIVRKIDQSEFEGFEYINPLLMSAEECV
Sequence of each individual kinase of the panel (Homo sapiens, UniProt P29320) (P29320 21-983 limits assumed): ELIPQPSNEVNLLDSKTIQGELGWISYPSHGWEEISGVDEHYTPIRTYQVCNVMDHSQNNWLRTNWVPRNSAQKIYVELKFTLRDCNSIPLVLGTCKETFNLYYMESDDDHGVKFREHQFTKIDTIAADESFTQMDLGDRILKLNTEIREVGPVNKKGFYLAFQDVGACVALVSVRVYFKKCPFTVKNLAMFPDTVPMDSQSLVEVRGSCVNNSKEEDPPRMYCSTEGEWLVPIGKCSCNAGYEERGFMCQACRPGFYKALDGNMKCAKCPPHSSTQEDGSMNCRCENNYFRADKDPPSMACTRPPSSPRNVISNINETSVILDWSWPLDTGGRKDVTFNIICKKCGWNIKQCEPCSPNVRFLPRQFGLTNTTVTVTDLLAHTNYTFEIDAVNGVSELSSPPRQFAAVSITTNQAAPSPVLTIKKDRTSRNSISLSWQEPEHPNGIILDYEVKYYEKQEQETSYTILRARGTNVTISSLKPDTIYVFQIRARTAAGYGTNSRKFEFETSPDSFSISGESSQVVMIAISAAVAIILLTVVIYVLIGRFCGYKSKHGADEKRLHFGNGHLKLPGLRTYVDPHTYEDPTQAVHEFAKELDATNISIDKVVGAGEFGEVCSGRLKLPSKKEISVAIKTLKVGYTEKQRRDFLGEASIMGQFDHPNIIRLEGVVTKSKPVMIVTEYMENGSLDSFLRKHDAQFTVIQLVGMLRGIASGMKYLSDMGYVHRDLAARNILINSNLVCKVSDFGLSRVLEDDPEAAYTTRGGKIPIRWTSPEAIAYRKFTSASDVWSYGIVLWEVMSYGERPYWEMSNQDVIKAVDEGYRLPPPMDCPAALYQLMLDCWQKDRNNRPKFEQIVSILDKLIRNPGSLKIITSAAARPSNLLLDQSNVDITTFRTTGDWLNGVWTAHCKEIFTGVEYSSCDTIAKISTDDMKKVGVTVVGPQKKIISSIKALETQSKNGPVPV
Sequence of each individual kinase of the panel (Homo sapiens, UniProt P42684) (P42684 2-1182 limits assumed): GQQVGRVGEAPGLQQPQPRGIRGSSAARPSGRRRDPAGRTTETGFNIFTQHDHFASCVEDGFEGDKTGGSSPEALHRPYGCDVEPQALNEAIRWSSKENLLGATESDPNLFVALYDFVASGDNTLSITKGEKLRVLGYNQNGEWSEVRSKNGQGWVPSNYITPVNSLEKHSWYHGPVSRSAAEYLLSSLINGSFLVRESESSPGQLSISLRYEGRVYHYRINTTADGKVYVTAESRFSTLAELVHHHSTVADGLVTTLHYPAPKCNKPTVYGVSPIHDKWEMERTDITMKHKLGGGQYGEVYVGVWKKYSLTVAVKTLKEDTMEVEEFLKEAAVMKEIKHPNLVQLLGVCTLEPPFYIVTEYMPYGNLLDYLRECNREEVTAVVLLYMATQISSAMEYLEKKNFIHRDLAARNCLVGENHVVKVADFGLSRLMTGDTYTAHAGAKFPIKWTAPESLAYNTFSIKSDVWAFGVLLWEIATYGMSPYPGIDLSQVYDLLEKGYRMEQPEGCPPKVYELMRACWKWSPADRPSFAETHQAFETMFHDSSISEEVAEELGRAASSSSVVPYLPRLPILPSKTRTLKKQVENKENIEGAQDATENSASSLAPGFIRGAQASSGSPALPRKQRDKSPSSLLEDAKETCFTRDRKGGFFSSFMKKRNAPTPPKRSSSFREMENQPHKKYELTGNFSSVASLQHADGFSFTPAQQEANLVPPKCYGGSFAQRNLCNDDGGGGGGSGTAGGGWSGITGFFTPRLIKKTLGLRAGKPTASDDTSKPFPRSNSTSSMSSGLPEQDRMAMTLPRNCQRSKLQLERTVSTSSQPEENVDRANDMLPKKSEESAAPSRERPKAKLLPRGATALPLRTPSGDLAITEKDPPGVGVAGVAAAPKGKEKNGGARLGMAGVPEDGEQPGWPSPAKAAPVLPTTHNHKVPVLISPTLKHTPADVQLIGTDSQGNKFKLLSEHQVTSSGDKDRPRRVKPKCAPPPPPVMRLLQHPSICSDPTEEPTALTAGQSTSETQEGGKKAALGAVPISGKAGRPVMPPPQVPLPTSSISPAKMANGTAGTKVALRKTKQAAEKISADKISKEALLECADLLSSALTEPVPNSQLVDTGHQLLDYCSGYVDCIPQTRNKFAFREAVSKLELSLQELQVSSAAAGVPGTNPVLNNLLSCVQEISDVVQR
Sequence of each individual kinase of the panel (Homo sapiens, UniProt Q06187) (Q06187 2-659 limits assumed): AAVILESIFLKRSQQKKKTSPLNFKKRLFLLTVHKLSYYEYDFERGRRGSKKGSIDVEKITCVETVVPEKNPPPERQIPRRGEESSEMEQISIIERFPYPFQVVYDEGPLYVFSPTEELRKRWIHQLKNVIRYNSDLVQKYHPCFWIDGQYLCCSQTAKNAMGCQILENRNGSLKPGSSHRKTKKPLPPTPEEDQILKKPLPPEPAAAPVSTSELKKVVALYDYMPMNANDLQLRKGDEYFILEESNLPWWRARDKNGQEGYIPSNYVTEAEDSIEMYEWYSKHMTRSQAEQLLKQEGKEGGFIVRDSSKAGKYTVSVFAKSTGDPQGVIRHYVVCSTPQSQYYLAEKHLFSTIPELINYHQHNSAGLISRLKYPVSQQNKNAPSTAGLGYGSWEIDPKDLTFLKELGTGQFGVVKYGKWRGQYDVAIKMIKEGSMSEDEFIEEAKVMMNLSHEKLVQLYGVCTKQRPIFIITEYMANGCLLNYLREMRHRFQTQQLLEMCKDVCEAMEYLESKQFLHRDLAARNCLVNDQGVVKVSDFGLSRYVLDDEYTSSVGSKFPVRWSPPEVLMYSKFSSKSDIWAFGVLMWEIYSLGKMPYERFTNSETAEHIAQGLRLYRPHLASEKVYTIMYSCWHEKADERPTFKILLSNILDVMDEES
Sequence of each individual kinase of the panel (Homo sapiens, UniProt P05771) (P05771 2-671 limits assumed): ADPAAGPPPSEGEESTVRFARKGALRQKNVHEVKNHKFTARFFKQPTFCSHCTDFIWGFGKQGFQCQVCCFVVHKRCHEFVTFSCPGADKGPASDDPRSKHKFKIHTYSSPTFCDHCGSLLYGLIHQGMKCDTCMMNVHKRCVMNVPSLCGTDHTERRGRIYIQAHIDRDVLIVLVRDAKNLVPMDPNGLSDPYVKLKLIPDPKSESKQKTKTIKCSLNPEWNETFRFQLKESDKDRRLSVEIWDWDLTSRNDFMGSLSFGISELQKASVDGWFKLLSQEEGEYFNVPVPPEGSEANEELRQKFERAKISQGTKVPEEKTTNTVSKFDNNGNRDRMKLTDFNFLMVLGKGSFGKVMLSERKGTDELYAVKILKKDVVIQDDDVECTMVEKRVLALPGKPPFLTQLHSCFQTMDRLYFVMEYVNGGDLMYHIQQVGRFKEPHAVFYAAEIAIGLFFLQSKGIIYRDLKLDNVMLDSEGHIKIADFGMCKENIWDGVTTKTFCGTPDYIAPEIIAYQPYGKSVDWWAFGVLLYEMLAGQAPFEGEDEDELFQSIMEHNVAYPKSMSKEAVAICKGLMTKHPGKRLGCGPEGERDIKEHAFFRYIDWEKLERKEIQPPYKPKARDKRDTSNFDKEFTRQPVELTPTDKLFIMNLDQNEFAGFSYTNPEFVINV
Sequence of each individual kinase of the panel (Homo sapiens, UniProt Q16539) (Q16539 2-360 limits assumed): as the sequence (Q16539 2-360 T106M limits assumed) above, with M105T counted along it

- SGK2 percentage of activity [1]: 2%
- TSSK2 percentage of activity [2]: −9%
- LKB1 percentage of activity [3]: −2%
- PRKCD percentage of activity [4]: 7%
- ROCK-II percentage of activity [5]: −4%
- ALK4 percentage of activity [6]: −15%
- WNK3 percentage of activity [7]: −17%
- PRKCB1 percentage of activity [8]: 0%
- PRKCI percentage of activity [9]: −5%
- BRSK1 percentage of activity [10]: −1%
- PRKX percentage of activity [11]: 3%
- ABL2 percentage of activity [12]: 2%
- CAMK2G percentage of activity [13]: 36%
- MAPKAPK3 percentage of activity [14]: −8%
- PAR-1B alpha percentage of activity [15]: 7%
- EPHB3 percentage of activity [16]: −36%
- Pyk2 percentage of activity [17]: −3%
- ABL1(T3151) percentage of activity [18]: −7%
- TAO2 percentage of activity [19]: 3%
- CDK3/cyclinE percentage of activity [20]: −19%
- SGK3 percentage of activity [21]: 2%
- EPHA3 percentage of activity [22]: −6%
- CHK2(1157T) (h) percentage of activity [23]: 3%
- SRPK2 percentage of activity [24]: 36%
- SYK percentage of activity [25]: −9%
- PAK6 percentage of activity [26]: −14%
- p38-alpha percentage of activity [27]: 1%
- BTK percentage of activity [28]: −5%
- DAPK2 percentage of activity [29]: 91%
- DCAMKL2 percentage of activity [30]: −3%
- p38-alpha (T106M) percentage of activity [31]: −8%
Compound: C#Cc1cccc(Nc2nc3cc(C(=O)O)ccc3c3cncnc23)c1 [drawing 1135]
